Assay results taken from ChEMBL document CHEMBL1201862, “PubChem BioAssay data set” (2004).
Active and inactive are the calls of the source.

Legend:
[1] = target: Macrophage colony-stimulating factor 1 receptor (Homo sapiens, UniProt P07333); assay type: functional;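 further: value comes from the Navigating the Kinome screening panel, CSF1R member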
[2] = target: Insulin-like growth factor 1 receptor (Homo sapiens, UniProt P08069); test: Navigating the Kinome. Panel member name: IGF1R; assay type: functional
[3] = target: High affinity nerve growth factor receptor (Homo sapiens, UniProt P04629); assay type: functional;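 further: NTRK1 tested as one member of a kinome-wide profiling panel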
[4] = target: Glycogen synthase kinase-3 beta (Homo sapiens, UniProt P49841); assay type: functional;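 further: value comes from a broad kinome profiling panel, with GSK3B as the panel member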
[5] = target: Vascular endothelial growth factor receptor 2 (Homo sapiens, UniProt P35968); assay type: functional
Aurora kinase B = Aurora kinase B (Homo sapiens, UniProt Q96GD4); assay type: functional
Sequence of Aurora kinase B (Q96GD4 whole entry): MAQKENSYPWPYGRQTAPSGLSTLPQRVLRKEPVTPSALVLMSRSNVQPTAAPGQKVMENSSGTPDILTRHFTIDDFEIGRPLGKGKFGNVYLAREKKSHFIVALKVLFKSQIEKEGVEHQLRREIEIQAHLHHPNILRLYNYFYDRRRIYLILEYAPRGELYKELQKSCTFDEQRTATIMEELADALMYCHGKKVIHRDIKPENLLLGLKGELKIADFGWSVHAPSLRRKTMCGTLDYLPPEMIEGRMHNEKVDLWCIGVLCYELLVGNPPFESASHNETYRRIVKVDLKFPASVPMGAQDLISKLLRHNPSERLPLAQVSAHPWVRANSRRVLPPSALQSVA

[6] = target: Hepatocyte growth factor receptor (Homo sapiens, UniProt P08581); assay type: functional;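 further: kinase panel profiling across the kinome, with MET as the panel member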
Sequence of Hepatocyte growth factor receptor (P08581 whole entry): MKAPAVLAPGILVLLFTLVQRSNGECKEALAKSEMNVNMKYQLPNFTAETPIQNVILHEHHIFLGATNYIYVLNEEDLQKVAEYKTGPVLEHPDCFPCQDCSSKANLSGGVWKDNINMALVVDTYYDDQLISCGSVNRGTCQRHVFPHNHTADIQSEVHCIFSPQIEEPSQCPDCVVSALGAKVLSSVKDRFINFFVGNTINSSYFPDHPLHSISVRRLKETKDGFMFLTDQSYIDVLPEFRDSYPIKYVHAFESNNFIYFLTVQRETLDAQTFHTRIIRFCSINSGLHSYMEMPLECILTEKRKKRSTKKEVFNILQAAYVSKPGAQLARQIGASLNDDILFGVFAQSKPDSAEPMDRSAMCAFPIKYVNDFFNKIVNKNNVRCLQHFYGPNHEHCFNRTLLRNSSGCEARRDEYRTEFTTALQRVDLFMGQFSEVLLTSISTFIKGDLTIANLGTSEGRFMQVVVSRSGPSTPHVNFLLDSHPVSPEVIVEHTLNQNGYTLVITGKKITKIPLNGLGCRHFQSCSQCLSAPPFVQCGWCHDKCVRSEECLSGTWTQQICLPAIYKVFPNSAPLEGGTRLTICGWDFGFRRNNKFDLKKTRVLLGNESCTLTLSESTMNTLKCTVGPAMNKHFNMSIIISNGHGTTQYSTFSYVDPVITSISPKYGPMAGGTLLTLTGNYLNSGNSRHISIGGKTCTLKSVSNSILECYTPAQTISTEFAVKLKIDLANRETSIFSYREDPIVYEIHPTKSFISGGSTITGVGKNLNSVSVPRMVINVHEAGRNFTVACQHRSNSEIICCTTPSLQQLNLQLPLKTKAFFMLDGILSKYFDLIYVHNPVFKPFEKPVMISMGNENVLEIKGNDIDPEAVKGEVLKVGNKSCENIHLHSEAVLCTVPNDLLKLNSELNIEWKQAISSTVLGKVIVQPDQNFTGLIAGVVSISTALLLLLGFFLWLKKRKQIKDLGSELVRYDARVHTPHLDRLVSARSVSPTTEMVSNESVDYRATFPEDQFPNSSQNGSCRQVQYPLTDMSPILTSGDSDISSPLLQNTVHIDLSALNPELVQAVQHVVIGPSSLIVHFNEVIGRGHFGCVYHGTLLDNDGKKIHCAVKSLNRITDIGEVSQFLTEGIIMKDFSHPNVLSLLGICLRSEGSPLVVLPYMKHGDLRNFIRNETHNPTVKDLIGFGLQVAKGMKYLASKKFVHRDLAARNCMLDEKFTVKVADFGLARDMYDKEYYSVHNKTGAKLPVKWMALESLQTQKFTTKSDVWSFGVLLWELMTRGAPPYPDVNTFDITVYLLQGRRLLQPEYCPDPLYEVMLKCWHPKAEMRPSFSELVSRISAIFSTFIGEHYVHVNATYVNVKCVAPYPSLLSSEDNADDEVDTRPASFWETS

[7] = target: Glycogen synthase kinase-3 alpha (Homo sapiens, UniProt P49840); assay type: functional;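 further: GSK3A result taken from a broad kinome-wide kinase panel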
Sequence of Glycogen synthase kinase-3 alpha (P49840 whole entry): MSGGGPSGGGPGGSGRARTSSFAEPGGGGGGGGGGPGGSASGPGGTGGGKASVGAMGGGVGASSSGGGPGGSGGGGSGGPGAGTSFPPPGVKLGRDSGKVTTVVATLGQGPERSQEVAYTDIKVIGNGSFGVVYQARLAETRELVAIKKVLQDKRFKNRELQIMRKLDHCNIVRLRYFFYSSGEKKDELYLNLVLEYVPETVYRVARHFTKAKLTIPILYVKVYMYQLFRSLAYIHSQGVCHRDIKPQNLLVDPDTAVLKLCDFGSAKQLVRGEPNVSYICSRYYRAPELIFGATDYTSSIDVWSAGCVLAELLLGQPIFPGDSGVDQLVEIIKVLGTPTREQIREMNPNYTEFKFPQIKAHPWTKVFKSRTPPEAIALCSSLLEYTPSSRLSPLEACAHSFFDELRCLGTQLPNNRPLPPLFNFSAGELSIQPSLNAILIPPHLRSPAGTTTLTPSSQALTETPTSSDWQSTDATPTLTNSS

[8] = target: Cyclin-dependent kinase 5 (Homo sapiens, UniProt Q00535); assay type: functional;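 further: CDK5 measured as one member of a kinase profiling panel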
[9] = target: Ribosomal protein S6 kinase alpha-3 (Homo sapiens, UniProt P51812); assay type: functional;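 further: measured within a kinome-wide profiling panel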
Aurora kinase A = Aurora kinase A (Homo sapiens, UniProt O14965); assay type: functional;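 further: value from the Navigating the Kinome kinase panel profiling, panel entry STK6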
[10] = target: Vascular endothelial growth factor receptor 1 (Homo sapiens, UniProt P17948); assay type: functional;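 further: measured within a kinome-wide profiling panel, FLT1 as the panel member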
[11] = target: Serine/threonine-protein kinase Chk1 (Homo sapiens, UniProt O14757); assay type: functional;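 further: measured as one member of a kinome-wide kinase profiling panel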
Sequence of Serine/threonine-protein kinase Chk1 (O14757 whole entry): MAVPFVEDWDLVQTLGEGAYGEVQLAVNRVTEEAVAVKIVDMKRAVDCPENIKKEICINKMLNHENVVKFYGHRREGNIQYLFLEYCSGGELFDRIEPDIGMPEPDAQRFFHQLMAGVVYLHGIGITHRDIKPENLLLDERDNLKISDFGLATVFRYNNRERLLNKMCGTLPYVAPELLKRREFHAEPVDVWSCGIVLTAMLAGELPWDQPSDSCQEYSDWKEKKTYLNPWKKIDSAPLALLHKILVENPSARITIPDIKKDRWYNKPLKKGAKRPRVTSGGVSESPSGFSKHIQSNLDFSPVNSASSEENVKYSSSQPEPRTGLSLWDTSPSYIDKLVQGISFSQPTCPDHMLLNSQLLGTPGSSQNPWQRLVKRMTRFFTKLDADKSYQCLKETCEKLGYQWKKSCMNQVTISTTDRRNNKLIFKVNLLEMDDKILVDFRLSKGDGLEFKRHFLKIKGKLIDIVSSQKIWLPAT

[12] = target: BDNF/NT-3 growth factors receptor (Homo sapiens, UniProt Q16620); assay type: functional;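 further: NTRK2 measured as one member of a broad kinome-wide kinase profiling panel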
[13] = target: Tyrosine-protein kinase JAK2 (Homo sapiens, UniProt O60674); assay type: functional;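 further: JAK2 tested as one member of a kinase panel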
[14] = target: Fibroblast growth factor receptor 1 (Homo sapiens, UniProt P11362); assay type: functional
Sequence of Fibroblast growth factor receptor 1 (P11362 whole entry): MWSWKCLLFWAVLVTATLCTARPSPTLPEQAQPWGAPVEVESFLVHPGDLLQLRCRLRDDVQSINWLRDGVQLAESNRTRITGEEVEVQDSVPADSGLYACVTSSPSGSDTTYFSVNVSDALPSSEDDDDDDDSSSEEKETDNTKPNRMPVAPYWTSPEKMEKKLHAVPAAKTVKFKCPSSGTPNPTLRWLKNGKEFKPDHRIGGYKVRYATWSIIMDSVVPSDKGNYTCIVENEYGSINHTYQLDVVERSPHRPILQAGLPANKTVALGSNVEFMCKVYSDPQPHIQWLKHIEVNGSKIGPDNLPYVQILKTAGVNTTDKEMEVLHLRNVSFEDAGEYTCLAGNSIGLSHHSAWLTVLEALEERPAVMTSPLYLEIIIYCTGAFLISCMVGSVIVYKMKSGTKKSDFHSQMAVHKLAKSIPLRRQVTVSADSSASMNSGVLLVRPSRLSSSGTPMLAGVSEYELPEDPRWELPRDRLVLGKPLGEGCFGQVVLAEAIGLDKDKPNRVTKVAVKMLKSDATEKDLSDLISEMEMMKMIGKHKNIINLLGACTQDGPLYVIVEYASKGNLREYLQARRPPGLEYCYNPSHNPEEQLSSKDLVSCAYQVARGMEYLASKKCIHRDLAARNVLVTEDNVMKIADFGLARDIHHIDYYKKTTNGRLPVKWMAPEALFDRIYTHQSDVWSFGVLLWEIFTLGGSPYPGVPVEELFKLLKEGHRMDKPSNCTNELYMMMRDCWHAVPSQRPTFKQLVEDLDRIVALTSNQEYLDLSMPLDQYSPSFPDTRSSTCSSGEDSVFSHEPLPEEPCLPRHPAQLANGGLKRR

[15] = target: Death-associated protein kinase 3 (Homo sapiens, UniProt O43293); assay type: functional;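 further: measured as one member of a kinome-wide profiling panel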
[16] = target: Serine/threonine-protein kinase pim-1 (Homo sapiens, UniProt P11309); assay type: functional
[17] = target: 5'-AMP-activated protein kinase catalytic subunit alpha-1 (Homo sapiens, UniProt Q13131); assay type: functional
[18] = target: Dual specificity tyrosine-phosphorylation-regulated kinase 1A (Homo sapiens, UniProt Q13627); assay type: functional;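 further: measured against DYRK1A as one member of a broad kinome profiling panel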
[19] = target: cAMP-dependent protein kinase catalytic subunit alpha (Homo sapiens, UniProt P17612); assay type: functional
[20] = target: Tyrosine-protein kinase Fyn (Homo sapiens, UniProt P06241); assay type: functional
[21] = target: Tyrosine-protein kinase JAK3 (Homo sapiens, UniProt P52333); assay type: functional
[22] = target: Mitogen-activated protein kinase 8 (Homo sapiens, UniProt P45983); assay type: functional;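 further: value comes from one member of a kinome-wide kinase profiling panel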
Sequence of Mitogen-activated protein kinase 8 (P45983 whole entry): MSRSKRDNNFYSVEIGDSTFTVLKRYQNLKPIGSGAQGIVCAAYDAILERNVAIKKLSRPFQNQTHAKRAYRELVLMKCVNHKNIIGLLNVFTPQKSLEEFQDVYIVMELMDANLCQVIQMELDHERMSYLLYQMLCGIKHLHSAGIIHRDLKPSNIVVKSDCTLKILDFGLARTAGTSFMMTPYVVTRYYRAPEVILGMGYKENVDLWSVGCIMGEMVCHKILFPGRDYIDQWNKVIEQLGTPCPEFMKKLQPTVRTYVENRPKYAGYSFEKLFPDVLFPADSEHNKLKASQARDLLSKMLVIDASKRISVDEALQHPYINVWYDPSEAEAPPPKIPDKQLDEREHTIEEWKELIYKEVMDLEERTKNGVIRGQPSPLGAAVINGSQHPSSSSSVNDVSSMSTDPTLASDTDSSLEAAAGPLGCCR

[23] = target: Serine/threonine-protein kinase Nek2 (Homo sapiens, UniProt P51955); assay type: functional
LIM domain kinase 1 = LIM domain kinase 1 (Homo sapiens, UniProt P53667); test: Navigating the Kinome. Panel member name: LIMK1; assay type: functional
[24] = target: Receptor-type tyrosine-protein kinase FLT3 (Homo sapiens, UniProt P36888); assay type: functional;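 further: FLT3 was tested as one member of a kinome-wide kinase panel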
[25] = target: T1, Histone-lysine N-methyltransferase NSD2 (Homo sapiens, UniProt O96028); assay type: biochemical
T1 sequence (O96028 whole entry): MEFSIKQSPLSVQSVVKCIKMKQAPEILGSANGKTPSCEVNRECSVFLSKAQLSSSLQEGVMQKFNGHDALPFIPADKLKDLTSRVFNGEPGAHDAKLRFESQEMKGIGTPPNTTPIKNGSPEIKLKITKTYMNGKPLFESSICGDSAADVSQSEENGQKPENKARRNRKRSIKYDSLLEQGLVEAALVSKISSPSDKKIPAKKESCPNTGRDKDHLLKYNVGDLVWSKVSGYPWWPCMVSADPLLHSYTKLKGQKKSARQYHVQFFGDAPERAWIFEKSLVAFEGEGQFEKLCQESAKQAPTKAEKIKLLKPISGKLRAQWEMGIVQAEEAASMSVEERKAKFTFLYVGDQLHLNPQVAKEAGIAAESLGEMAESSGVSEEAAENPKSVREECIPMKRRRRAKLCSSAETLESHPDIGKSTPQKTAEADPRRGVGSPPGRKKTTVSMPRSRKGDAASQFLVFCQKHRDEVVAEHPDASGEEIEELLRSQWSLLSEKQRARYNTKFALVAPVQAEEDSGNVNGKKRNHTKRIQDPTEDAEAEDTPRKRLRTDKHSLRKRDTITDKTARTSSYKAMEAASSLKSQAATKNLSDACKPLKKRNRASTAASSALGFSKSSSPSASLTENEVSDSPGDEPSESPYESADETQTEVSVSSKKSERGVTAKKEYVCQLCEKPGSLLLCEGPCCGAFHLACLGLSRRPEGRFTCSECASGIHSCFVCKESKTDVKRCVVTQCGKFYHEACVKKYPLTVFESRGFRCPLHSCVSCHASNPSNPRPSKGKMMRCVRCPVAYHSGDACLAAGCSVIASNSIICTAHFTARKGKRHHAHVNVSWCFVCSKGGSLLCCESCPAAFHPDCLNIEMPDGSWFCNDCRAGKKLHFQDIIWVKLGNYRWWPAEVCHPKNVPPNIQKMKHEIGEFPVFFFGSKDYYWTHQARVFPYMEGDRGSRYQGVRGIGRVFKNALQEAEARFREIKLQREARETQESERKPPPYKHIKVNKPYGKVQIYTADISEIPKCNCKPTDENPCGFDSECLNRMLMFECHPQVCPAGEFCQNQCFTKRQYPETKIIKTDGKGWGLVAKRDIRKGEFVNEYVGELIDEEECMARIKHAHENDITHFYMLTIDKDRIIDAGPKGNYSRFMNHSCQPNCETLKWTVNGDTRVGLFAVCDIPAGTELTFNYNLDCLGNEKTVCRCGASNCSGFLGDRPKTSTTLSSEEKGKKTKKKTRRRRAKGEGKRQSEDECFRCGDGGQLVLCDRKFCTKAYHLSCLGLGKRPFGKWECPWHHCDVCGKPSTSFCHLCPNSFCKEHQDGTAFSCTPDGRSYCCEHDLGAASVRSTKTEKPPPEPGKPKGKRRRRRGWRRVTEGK

Sequence of Macrophage colony-stimulating factor 1 receptor (P07333 whole entry): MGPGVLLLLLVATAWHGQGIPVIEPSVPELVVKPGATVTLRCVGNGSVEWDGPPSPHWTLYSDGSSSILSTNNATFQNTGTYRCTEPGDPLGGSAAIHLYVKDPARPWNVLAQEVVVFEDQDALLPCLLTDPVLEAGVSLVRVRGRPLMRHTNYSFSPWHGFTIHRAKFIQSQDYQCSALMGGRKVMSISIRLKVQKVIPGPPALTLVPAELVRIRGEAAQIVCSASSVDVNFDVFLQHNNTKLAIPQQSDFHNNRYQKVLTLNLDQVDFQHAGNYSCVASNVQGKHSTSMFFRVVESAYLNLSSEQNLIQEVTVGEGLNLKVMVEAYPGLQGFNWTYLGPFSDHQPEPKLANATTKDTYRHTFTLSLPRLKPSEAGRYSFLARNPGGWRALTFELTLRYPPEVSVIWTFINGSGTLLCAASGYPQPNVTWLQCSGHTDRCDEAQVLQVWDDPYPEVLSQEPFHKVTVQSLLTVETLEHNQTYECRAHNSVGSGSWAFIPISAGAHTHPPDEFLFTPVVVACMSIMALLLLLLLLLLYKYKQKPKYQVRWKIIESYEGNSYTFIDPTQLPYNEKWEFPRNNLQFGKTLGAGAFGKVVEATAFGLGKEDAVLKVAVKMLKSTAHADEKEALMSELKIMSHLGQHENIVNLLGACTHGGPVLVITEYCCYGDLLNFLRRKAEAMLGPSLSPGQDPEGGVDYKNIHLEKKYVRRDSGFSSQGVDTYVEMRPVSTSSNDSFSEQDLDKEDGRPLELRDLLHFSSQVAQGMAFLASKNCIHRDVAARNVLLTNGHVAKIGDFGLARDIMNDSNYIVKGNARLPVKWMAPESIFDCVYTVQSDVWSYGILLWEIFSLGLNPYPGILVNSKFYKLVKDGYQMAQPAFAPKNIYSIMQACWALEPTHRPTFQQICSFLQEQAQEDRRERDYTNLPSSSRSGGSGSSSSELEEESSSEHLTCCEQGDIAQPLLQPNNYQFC

Row | Ki [1] | Ki [2] | Ki [3] | Ki [4] | Ki [5] | Ki (Aurora kinase B) | Ki [6] | Ki [7] | Ki [8] | Ki [9] | Ki (Aurora kinase A) | Ki [10] | Ki [11] | Ki [12] | Ki [13] | Ki [14] | Ki [16] | Ki [17] | Ki [18] | SMILES | Ki [15] | further results
1 | > 2.51 µM (inactive) | > 2.51 µM (inactive) | 0.0631 µM (active) | > 3.98 µM (inactive) | 0.316 µM (active) | > 3.98 µM (inactive) | > 2.51 µM (inactive) | > 3.98 µM (inactive) | > 3.16 µM (inactive) | > 3.98 µM (inactive) | > 1.58 µM (inactive) | > 3.98 µM (inactive) | > 3.16 µM (inactive) | 0.01 µM (active) | > 2.51 µM (inactive) | > 3.98 µM (inactive) | > 6.31 µM (inactive) | > 3.16 µM (inactive) | > 2 µM (inactive) | Cc1cc(=O)[nH]nc1-c1ccc(NC(=O)Nc2cc(C(F)(F)F)ccc2F)c(Cl)c1 | > 5.01 µM (inactive) | Ki [19]: > 1.26 µM (inactive); Ki [20]: > 6.31 µM (inactive); Ki [21]: > 5.01 µM (inactive); Ki [22]: > 5.01 µM (inactive); Ki [23]: > 3.16 µM (inactive); Ki (LIM domain kinase 1): > 3.16 µM (inactive); Ki [24]: > 3.16 µM (inactive)
2 | – | – | – | – | – | – | – | – | – | – | – | – | – | – | – | – | – | – | – | O=C1C=C(NCc2ccccc2)c2ccccc2C1=O | – | AC50 [25]: 2.16 µM (active)
3 | > 2.51 µM (inactive) | > 1 µM (inactive) | > 2.51 µM (inactive) | > 6.31 µM (inactive) | > 7.94 µM (inactive) | > 6.31 µM (inactive) | > 3.16 µM (inactive) | 7.94 µM (active) | 5.01 µM (active) | > 7.94 µM (inactive) | > 6.31 µM (inactive) | > 0.398 µM (inactive) | > 7.94 µM (inactive) | > 5.01 µM (inactive) | > 1.58 µM (inactive) | > 5.01 µM (inactive) | > 10 µM (inactive) | > 10 µM (inactive) | > 6.31 µM (inactive) | CCOC(=O)c1cn(-c2ccc(O)cc2C)c2cc(-c3ccncc3)ccc2c1=O | > 1.26 µM (inactive) | Ki [19]: 1.26 µM (active); Ki [20]: > 0.794 µM (inactive); Ki [21]: > 1.58 µM (inactive); Ki [22]: > 3.16 µM (inactive); Ki [23]: > 10 µM (inactive); Ki (LIM domain kinase 1): > 10 µM (inactive); Ki [24]: > 2.51 µM (inactive)
4 | – | – | – | – | – | – | – | – | – | – | – | – | – | – | – | – | – | – | – | O=C(O)c1[nH]c2ccccc2c1C(c1cc(Cl)cc([N+](=O)[O-])c1O)c1c(C(=O)O)[nH]c2ccccc12 | – | AC50 [25]: 16.6 µM (active)
